The record followed here is patent US20230338345A1, “DRUG COMBINATION AND USE THEREOF” (NATURAL MEDICINE INSTITUTE OF ZHEJIANG YANGSHENGTANG CO., …, priority 2020, published 2023).

The conditions of data set [1]: mouse, in vivo.
Protocol: (§1) (2) After tumor formation, the mice were divided into four experimental groups, namely, a blank control, a roflumilast group, a sodium ascorbate group, and a roflumilast+sodium ascorbate group. The mice in the roflumilast+sodium ascorbate group were intraperitoneally injected with roflumilast at 4 mg/kg and intravenously injected with sodium ascorbate at 1.5 g/kg every three days, for 5 administrations. At the same time, the roflumilast group and the sodium ascorbate group were separately injected with roflumilast and sodium ascorbate at the same dose in the same way; and normal saline was injected at the same dose in the blank control. The day of the first injection was taken as Day 1, and then the mice were tested and recorded in terms of body weight and tumor size: tumor volume (mm^3)=length (L) ×width (W) 2/2. Luciferin fluorescence imaging was conducted on tumors. That is, a 1 mg/mL D-luciferin potassium aqueous solution was formulated; each mouse was intraperitoneally injected with 100 μL of the D-luciferin potassium aqueous solution, and 10 minutes after injection, was subjected to luciferin fluorescence imaging with a small animal in vivo imager (Model: IVIS Lumina XRMS Series III).
Data set [2] is described as follows: Body weight of tumor-bearing mice (Example 1). The settings on record: roflumilast 4 mg/kg i.p., sodium ascorbate 1.5 g/kg i.v., every three days, 5 administrations; compared with the control.
Protocol: as §1

Read-outs that look alike come from different tables or passages of the source.

Turning to `O=C(Nc1c(Cl)cncc1Cl)c1ccc(OC(F)F)c(OCC2CC2)c1` [roflumilast], the “effect on the body weight of mice” value in data set [1] was “no effect on the body weight of mice”.
In the case of `O=C1O[C@H]([C@@H](O)CO)C([O-])=C1O.[Na+]` [sodium ascorbate], the “effect on the body weight of mice” value in data set [2] is “no effect on the body weight of mice”.
